# Results from ChEMBL document CHEMBL5096178, “Synthesis and Biological Evaluation of Natural-Product-Inspired, Aminoalkyl-Substituted 1-Benzopyrans as Novel Antiplasmodial Agents” (J Med Chem, 2021).
# Key:
# Plasmodium falciparum [1] = experiment: Inhibition of Plasmodium falciparum DHODH using DCIP as substrate at 10 uM relative to control
# Plasmodium falciparum [2] = experiment: Antiprotozoal activity against erythrocytic stage Plasmodium falciparum NF54 assessed as parasite growth inhibition incubated for 48 hrs by [3H]hypoxanthine incorporation assay; type: functional, organism-based
# [3] = test system: Trypanosoma brucei rhodesiense; experiment: Antiprotozoal activity against Trypanosoma brucei rhodesiense STIB 900 bloodstream trypomastigote assessed as parasite growth inhibition incubated for 70 hrs by resazurin dye based assay; type: functional, organism-based; conditions: STIB 900, 70 h
# Trypanosoma cruzi = experiment: Antiprotozoal activity against Trypanosoma cruzi Tulahuen C4 intracellular amastigote infected in rat L6 cells assessed as parasite growth inhibition incubated for 96 hrs in presence of CPRG/Nonidet by photometry; type: functional, organism-based; conditions: Tulahuen C4, L6, 96 h
# Leishmania donovani [4] = experiment: Antiprotozoal activity against Leishmania donovani MHOM/ET/67/L82 axenic amastigote assessed as parasite growth inhibition incubated for resazurin dye based fluorometry; type: functional, organism-based
# [5] = Cytotoxicity against rat L6 cells assessed as cell growth inhibition incubated for 70 hrs by Alamar Blue staining based […]; type: toxicity
# [6] = Selectivity index, ratio of IC50 for rat L6 cells to IC50 for erythrocytic stage Plasmodium falciparum NF54; type: toxicity; conditions: read-out: Ratio IC50
# [7] = Selectivity index, ratio of IC50 for rat L6 cells to IC50 for Trypanosoma brucei rhodesiense STIB 900 bloodstream trypomastigote; type: toxicity; conditions: read-out: Ratio IC50
# [8] = Selectivity index, ratio of IC50 for rat L6 cells to IC50 for Trypanosoma cruzi Tulahuen C4 intracellular amastigote infected in rat L6 cells; type: toxicity, cell-based; conditions: read-out: Ratio IC50
# [9] = Selectivity index, ratio of IC50 for rat L6 cells to IC50 for Leishmania donovani MHOM/ET/67/L82 axenic amastigote; type: toxicity; conditions: read-out: Ratio IC50
# Plasmodium falciparum [10] = experiment: Inhibition of Plasmodium falciparum DHODH using DCIP as substrate at 50 uM relative to control
# [11] = Displacement of [3H]-(+)-pentazocine from Sigma1 receptor derived from pig brain assessed as inhibition constant measured after 120 mins by scintillation counter analysis; type: tissue-based, Sus scrofa
# Plasmodium berghei [12] = experiment: Antiplasmodial activity against GFP-transfected Plasmodium berghei ANKA infected in NMRI mouse assessed as parasitemia reduction at 30 mg/kg, ip administered for 4 consecutive days measured after 24 hrs by FACS analysis relative to control; type: functional; design: scale not given: the % may be the effect or the level left
# Plasmodium berghei [13] = experiment: Antiplasmodial activity against GFP-transfected Plasmodium berghei ANKA infected in NMRI mouse assessed as parasitemia reduction at 60 mg/kg, po administered for 4 consecutive days measured after 24 hrs by FACS analysis relative to control; type: functional; design: scale not given: the % may be the effect or the level left
# [14] = Drug metabolism in mouse liver microsomes assessed as 2,2-dimethyl-6-((3-phenylpropylamino)methyl)chroman-7-ol metabolite formation incubated for 90 mins in presence of NADPH/UDPGA by LC-MS analysis; type: ADME, Microsome; conditions: 1.5 h
# [15] = Drug metabolism in mouse liver microsomes assessed as glucuronic acid conjugated metabolite formation incubated for 90 mins in presence of NADPH/UDPGA by LC-MS analysis; type: ADME, Microsome; conditions: 1.5 h
# [16] = Drug metabolism in mouse liver microsomes assessed as (2R,3R,4S,5S,6R)-2-(2,2-dimethyl-6-((3-phenylpropylamino)methyl)chroman-7-ylperoxy)-6-(hydroxymethyl)tetrahydro-2H-pyran-3,4,5-triol metabolite formation incubated for 90 mins in presence of NADPH/UDPGA by LC-MS analysis; type: ADME, Microsome; conditions: 1.5 h
# [17] = Drug concentration in plasma of NMRI mouse infected with GFP-transfected Plasmodium berghei ANKA administered intraperitoneally for 4 consecutive days measured after 1 hr by LC-MS analysis; type: ADME; conditions: ip, 97 h
# [18] = Drug concentration in plasma of NMRI mouse infected with GFP-transfected Plasmodium berghei ANKA administered orally for 4 consecutive days measured after 1 hr by LC-MS analysis; type: ADME; conditions: po, 97 h
# [19] = Drug metabolism in NMRI mouse infected with GFP-transfected Plasmodium berghei ANKA assessed as 2,2-dimethyl-6-((3-phenylpropylamino)methyl)chroman-7-ol metabolite formation administered intraperitoneally for 4 consecutive days measured after 1 hr by LC-MS analysis; type: ADME; conditions: in vivo, ip, 97 h
# [20] = Drug metabolism in NMRI mouse infected with GFP-transfected Plasmodium berghei ANKA assessed as glucuronic acid conjugated metabolite formation administered intraperitoneally for 4 consecutive days measured after 1 hr by LC-MS analysis; type: ADME; conditions: in vivo, ip, 97 h
# [21] = (§1) Drug metabolism in NMRI mouse infected with GFP-transfected Plasmodium berghei ANKA assessed as (2R,3R,4S,5S,6R)-2-(2,2-dimethyl-6-((3-phenylpropylamino)methyl)chroman-7-ylperoxy)-6-(hydroxymethyl)tetrahydro-2H-pyran-3,4,5-triol metabolite formation administered intraperitoneally for 4 consecutive days measured after 1 hr by LC-MS analysis; type: ADME; conditions: in vivo, ip, 97 h
# [22] = Drug metabolism in NMRI mouse infected with GFP-transfected Plasmodium berghei ANKA assessed as 2,2-dimethyl-6-((3-phenylpropylamino)methyl)chroman-7-ol metabolite formation administered orally for 4 consecutive days measured after 1 hr by LC-MS analysis; type: ADME; conditions: in vivo, po, 97 h
# [23] = Drug metabolism in NMRI mouse infected with GFP-transfected Plasmodium berghei ANKA assessed as glucuronic acid conjugated metabolite formation administered orally for 4 consecutive days measured after 1 hr by LC-MS analysis; type: ADME; conditions: in vivo, po, 97 h
# [24] = as §1, with “orally” for “intraperitoneally”; type: ADME; conditions: in vivo, po, 97 h
# Plasmodium falciparum [25] = experiment: Inhibition of Plasmodium falciparum DHODH assessed as residual activity using DCIP as substrate at 10 uM relative to control
# Plasmodium falciparum [26] = experiment: Inhibition of Plasmodium falciparum DHODH assessed as residual activity using DCIP as substrate at 50 uM relative to control
# Plasmodium falciparum [27] = experiment: Antimalarial activity against drug-sensitive Plasmodium falciparum 3D7 assessed as parasite growth inhibition incubated for 48 hrs by [3H]hypoxanthine incorporation assay; type: functional, organism-based
# Plasmodium falciparum [28] = experiment: Antiprotozoal activity against Chloroquine-resistant Plasmodium falciparum K1 assessed as parasite growth inhibition; type: functional, organism-based
# Leishmania donovani [29] = experiment: Antiprotozoal activity against Leishmania donovani MHOM-ET-67/L82 axenic amastigotes assessed as parasite growth inhibition incubated for 70 hrs by resazurin dye based inverted microscopy; conditions: MHOM-ET-67/L82, 70 h
# [30] = Displacement of [14C]lactate from Plasmodium falciparum FNT expressed in Saccharomyces cerevisiae incubated for 24 hrs by liquid scintillation counter method
# Plasmodium falciparum [31] = experiment: Antiplasmodial activity against Plasmodium falciparum 3D7 assessed as parasite growth inhibition incubated for 24 hrs by FACS analysis; type: functional, organism-based
# Plasmodium falciparum [32] = experiment: Antimalarial activity against chloroquine-sensitive Plasmodium falciparum D6 assessed as parasite growth inhibition by [3H]hypoxanthine growth inhibition assay; type: functional, organism-based
# Plasmodium falciparum [33] = experiment: Potency index, ratio of Chloroquine IC50 to test compound IC50 for Chloroquine-resistant Plasmodium falciparum K1 assessed as parasite growth inhibition; type: functional
compound,measurement,setting,value
CC1(C)CCc2cc(CNCCCc3ccccc3)c(O)cc2O1,inhibition,Plasmodium falciparum [1],3%
same,IC50,Plasmodium falciparum [2],38 nM
same,IC50,[3],410 nM
same,IC50,Trypanosoma cruzi,15000 nM
same,IC50,Leishmania donovani [4],134000 nM
same,IC50 at 70 h,[5],6500 nM
same,selectivity ratio,[6],171
same,selectivity ratio,[7],14
same,selectivity ratio,[8],0.4
same,selectivity ratio,[9],0.05
same,inhibition,Plasmodium falciparum [10],1%
same,Ki,[11],74 nM
same,Activity,Plasmodium berghei [12],66%
same,Activity,Plasmodium berghei [13],74%
same,Drug metabolism,[14],Metabolite_Detected
same,Drug metabolism,[15],Metabolite_Detected
same,Drug metabolism,[16],Metabolite_Detected
same,Drug uptake,[17],Active
same,Drug uptake,[18],Active
same,Drug metabolism,[19],Metabolite_Detected
same,Drug metabolism,[20],Metabolite_Detected
same,Drug metabolism,[21],Metabolite_Detected
same,Drug metabolism,[22],Metabolite_Detected
same,Drug metabolism,[23],Metabolite_Detected
same,Drug metabolism,[24],Metabolite_Detected
same,Activity,Plasmodium falciparum [25],106%
same,Activity,Plasmodium falciparum [26],90%
CC(C)(C)c1cc(O)c(CN)c(C(C)(C)C)c1,IC50,Plasmodium falciparum [27],30 µg/mL
C[C@H](NCc1ccccc1)c1cc2c(cc1O)OC(C)(C)C=C2,inhibition,Plasmodium falciparum [1],5%
same,IC50,Plasmodium falciparum [28],10 nM
same,inhibition,Plasmodium falciparum [10],1%
same,Activity,Plasmodium falciparum [25],116%
same,Activity,Plasmodium falciparum [26],96%
C[C@@H](NCc1ccccc1)c1cc2c(cc1O)OC(C)(C)C=C2,inhibition,Plasmodium falciparum [1],3%
same,IC50,Plasmodium falciparum [28],20 nM
same,inhibition,Plasmodium falciparum [10],1%
same,Activity,Plasmodium falciparum [25],110%
same,Activity,Plasmodium falciparum [26],91%
CCCCCCCCCCCCCCCCOP(=O)([O-])OCC[N+](C)(C)C [MILTEFOSINE],IC50,Leishmania donovani [29],471 nM
COc1ccc(C(=O)/C=C(\O)C(F)(F)C(F)(F)F)c(O)c1,IC50,[30],170 nM
same,IC50,Plasmodium falciparum [31],140 nM
CCCCNCc1cc(C(C)(C)C)cc(-c2cnc(C(F)(F)F)c(F)c2)c1O,IC50,Plasmodium falciparum [32],9 nM
COCOc1cc2c(cc1CCCNCc1ccccc1)CCC(C)(C)O2,Ki,[11],2.4 nM
CC1(C)CCc2cc(CCCNCc3ccccc3)c(O)cc2O1,IC50,Plasmodium falciparum [2],980 nM
same,IC50,[3],4600 nM
same,IC50,Trypanosoma cruzi,15000 nM
same,IC50,Leishmania donovani [4],15000 nM
same,IC50 at 70 h,[5],24000 nM
same,selectivity ratio,[6],24
same,selectivity ratio,[7],5
same,selectivity ratio,[8],2
same,selectivity ratio,[9],2
same,Ki,[11],4.8 nM
CC1(C)CCc2c(ccc(CNCCc3ccccc3)c2O)O1,IC50,Plasmodium falciparum [2],10 nM
same,IC50,[3],6500 nM
same,IC50,Trypanosoma cruzi,53000 nM
same,IC50,Leishmania donovani [4],141000 nM
same,IC50 at 70 h,[5],36000 nM
same,selectivity ratio,[6],3600
same,selectivity ratio,[7],6
same,selectivity ratio,[8],0.7
same,selectivity ratio,[9],0.3
CC(NCCCc1ccccc1)c1cc2c(cc1O)OC(C)(C)C=C2 (racemic),inhibition,Plasmodium falciparum [1],3%
same,IC50,Plasmodium falciparum [28],886 nM
same,Ratio IC50,Plasmodium falciparum [33],13
same,inhibition,Plasmodium falciparum [10],4%
same,Activity,Plasmodium falciparum [25],116%
same,Activity,Plasmodium falciparum [26],98%
CC1(C)C=Cc2cc(CNCc3ccccc3)c(O)cc2O1,IC50,Plasmodium falciparum [2],160 nM
same,IC50,[3],910 nM
same,IC50,Trypanosoma cruzi,534000 nM
same,IC50,Leishmania donovani [4],65000 nM
same,IC50 at 70 h,[5],57000 nM
same,selectivity ratio,[6],356
same,selectivity ratio,[7],63
same,selectivity ratio,[8],0.1
same,selectivity ratio,[9],0.9
CC(NCc1ccccc1)c1cc2c(cc1O)OC(C)(C)C=C2 (racemic),IC50,Plasmodium falciparum [28],26 nM
same,Ratio IC50,Plasmodium falciparum [33],26
CC1(C)CCc2cc(CNCCCc3ccccc3)c3c(c2O1)CCC(C)(C)O3,IC50,Plasmodium falciparum [2],370 nM
same,IC50,[3],830 nM
same,IC50,Trypanosoma cruzi,5200 nM
same,IC50,Leishmania donovani [4],11000 nM
same,IC50 at 70 h,[5],2600 nM
same,selectivity ratio,[6],7
same,selectivity ratio,[7],3
same,selectivity ratio,[8],0.5
same,selectivity ratio,[9],0.2
